System: artificial tissue
Assay: Contraction type classification (single/double) of contractile force waveforms of artificial tissue under baseline and perturbed conditions (FIG. 27)
Type: cell-based
Details: functional response = contractile force; first and second (increasing) dose of isoproterenol vs reference/control conditions; shown most clearly at the second dose
Text: The waveforms comprise functional responses (contractile force) of an artificial tissue under baseline conditions and two perturbed conditions. Examples of perturbed conditions are treatment of a tissue with a drug or compound, different cell lines, different disease states, physical perturbation of the artificial tissue, changes made to the platform or bioreactor containing the artificial tissue, and the like. The baseline waveform 2702, the first perturbed waveform 2704, and the second perturbed waveform 2706 are associated with a baseline classification vector 2708, a first perturbed classification vector 2710, and a second perturbed classification vector 2712 respectively. […]
The classification vectors (e.g., the baseline classification vector 2708) are obtained by extracting a plurality of functional response waveforms from each waveform (as described in more detail below in relation to FIG. 33) and then determining a contraction type for each functional response waveform using a prediction model (e.g., the prediction model 600 described above in relation to FIGS. 6 and 7). […] In contrast, the third classification value 2720 is a double contraction type (as indicated by the dark gray shading) because the associated functional response waveform 2724 is determined by the prediction model to contain a double contraction. […]

SMILES: CC(C)NCC(O)c1ccc(O)c(O)c1 (stereo not shown) [isoproterenol]
- contraction type classification vector of the perturbed waveforms compared to the baseline classification vector: induces regular double contractions of the artificial tissue
